Where a SMILES comes first, the peptide text is derived from it. [ ]: non-standard residue; d: D form. The star is where a group is joined. ξ: configuration not given here. ξGly(4-Pip(1-amidino)) = N=C(N)N1CCC(C(N)C(=O)O)CC1; ξGly(piperidin-4-yl) = NC(C(=O)O)C1CCNCC1; Tle = CC(C)(C)[C@H](N)C(=O)O; X1 = O=S(=O)(CCOCCOCCF)CC*
Columns and labels:
[1] = in vitro stability, incubation in PBS, radio-HPLC; format: physicochemical; conditions: 4 hr post HPLC purification
Description: ^18F-DEG-VS (100 μL, 1 mCi) and 30 μL of borate buffer (pH 8.5) were added into Neurotensin (100 μg, […]) or (Ac)-NT and the reaction mixture was incubated at room temperature for 5-10 min. The reaction was quenched by acetic acid (5%, 600 μL) and product was purified by radio HPLC using Method 1. The retention time of ^18F-DEG-VS-NT was 25.6 min and (^18F-DEG-VS)2-NT was not observed. […] An aliquot of the solution was then analyzed by radio-HPLC to determine the radiochemical purify. The retention time of ^18F-DEG-VS-(Ac)-NT was 28.4 min.

NTR1 = molecular target: T1, NTR1 (Homo sapiens, UniProt P30989); assay: competitive cell-binding assay with 125I-NT(8-13) in HT-29 cells; conditions: 1 hr at 37° C, n=3, read-out: IC50, inhibition of binding of 125I-NT(8-13) to NTR1 positive HT-29 cells
T1 construct: host or cells: HT-29 human colon adenocarcinoma cells (intact, adherent)
T1 sequence (P30989 whole entry): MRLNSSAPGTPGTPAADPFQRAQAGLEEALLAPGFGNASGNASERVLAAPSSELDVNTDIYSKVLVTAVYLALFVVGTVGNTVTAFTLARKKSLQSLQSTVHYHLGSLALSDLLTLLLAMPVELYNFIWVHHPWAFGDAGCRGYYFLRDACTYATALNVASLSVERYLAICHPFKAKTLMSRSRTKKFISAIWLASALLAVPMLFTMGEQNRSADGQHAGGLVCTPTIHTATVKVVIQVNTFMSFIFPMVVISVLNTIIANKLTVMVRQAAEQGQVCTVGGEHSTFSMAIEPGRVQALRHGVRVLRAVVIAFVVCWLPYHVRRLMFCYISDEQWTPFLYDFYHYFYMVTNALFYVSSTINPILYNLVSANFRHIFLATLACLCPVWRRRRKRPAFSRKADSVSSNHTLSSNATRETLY
Description: The human colon adenocarcinoma cell HT29 was obtained from American Type Culture Collection and maintained at 37° C. in a humidified atmosphere containing 5% CO2 in RPMI-1640, supplemented with 1% L-glutamine, 1% penicillin/streptomycin and 10% fetal bovine serum (Life Technologies, Inc.).
In detail, HT-29 cells were placed in 48-wells plates (1 million/0.4 mL/well) and were incubated for overnight. The cells were washed three times with binding buffer (50 mM Hepes, 125 mM NaCl, 7.5 mM KCl, 5.5 mM MgCl2, 1 mM EGTA, 5 g/L BSA, 2 mg/L chymostatin, 100 mg/L soybean trypsin inhibitor, 50 mg/L bacitracin, pH 7.4). […] After washing, cells were solubilized with 1 mol/L NaOH at 37° C. and the radioactivity was determined using a gamma counter. The best-fit 50% inhibitory concentration (IC50) values for HT-29 cells were calculated by fitting the data with nonlinear regression using GraphPad Prism (GraphPad Software). Experiments were performed on triplicate samples.

Row | SMILES | radiochemical purity after incubation in PBS [1] | IC50 (NTR1) [nM]
1 | C=CS(=O)(=O)CCOCCOCC[18F] [^18F-DEG-VS] | more than 99% | 
2 | CC(C)C[C@H](NC(=O)[C@@H](NC(=O)[C@H](Cc1ccc(O)cc1)NC(=O)[C@@H]1CCCN1C(=O)[C@H](CCCNC(=N)N)NC(=O)C(NC(=O)[C@@H]1CCCN1C(=O)C(NC(=O)[C@@H](N)CSCCS(=O)(=O)CCOCCOCCF)C1CCNCC1)C1CCN(C(=N)N)CC1)C(C)(C)C)C(=O)O (stereo partly drawn) [^19F-DEG-VS-NT] (H-C(X1)[ξGly(piperidin-4-yl)]P[ξGly(4-Pip(1-amidino))]RPY[Tle]L-OH) |  | 2.03 ± 0.22
